#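 Results reflect a 48-hour exposure of cells in 96-well plates to compound at five concentrations. GI50 marks 50% less growth. TGI marks complete inhibition of growth.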
# Experiments:
# Assay in all cases: NCI-60 cell line screen, 48 h
# PC-3 prostate = tested on: PC-3 prostate
# NCI-H460 lung = tested on: NCI-H460 lung
# DU-145 prostate = tested on: DU-145 prostate
# RXF 393 renal = tested on: RXF 393 renal
# HS 578T breast = tested on: HS 578T breast
# SF-295 CNS = tested on: SF-295 CNS
# SW-620 colon = tested on: SW-620 colon
# HCT-15 colon = tested on: HCT-15 colon
# SNB-19 CNS = tested on: SNB-19 CNS
# MCF7 breast = tested on: MCF7 breast
# RPMI-8226 leukemia = tested on: RPMI-8226 leukemia
# SK-MEL-5 melanoma = tested on: SK-MEL-5 melanoma
# SR leukemia = tested on: SR leukemia
# MOLT-4 leukemia = tested on: MOLT-4 leukemia
# HOP-92 NSCLC = tested on: HOP-92 NSCLC
# SN12C renal = tested on: SN12C renal
# NCI-H522 lung = tested on: NCI-H522 lung
# KM12 colon = tested on: KM12 colon
# SF-539 CNS = tested on: SF-539 CNS
# COLO 205 colon = tested on: COLO 205 colon
# HOP-62 NSCLC = tested on: HOP-62 NSCLC
# ACHN renal = tested on: ACHN renal
# 786-0 renal = tested on: 786-0 renal
# SK-MEL-28 melanoma = tested on: SK-MEL-28 melanoma
# HCC-2998 colon = tested on: HCC-2998 colon
# U251 CNS = tested on: U251 CNS
# SK-OV-3 ovarian = tested on: SK-OV-3 ovarian
# EKVX NSCLC = tested on: EKVX NSCLC
compound,measurement,setting,value
CC[C@H](Nc1cc(C)nc(N)n1)c1nc2cccc(NCc3ccc(C(=O)NO)cc3)c2c(=O)n1-c1ccccc1,GI50,PC-3 prostate,1.83 µM
same,TGI,PC-3 prostate,4.41 µM
same,GI50,NCI-H460 lung,1.94 µM
same,TGI,NCI-H460 lung,5.68 µM
same,GI50,DU-145 prostate,2.99 µM
same,TGI,DU-145 prostate,10.6 µM
same,GI50,RXF 393 renal,1.48 µM
same,TGI,RXF 393 renal,2.9 µM
same,GI50,HS 578T breast,2.36 µM
same,TGI,HS 578T breast,9.97 µM
same,GI50,SF-295 CNS,1.66 µM
same,TGI,SF-295 CNS,3.48 µM
same,GI50,SW-620 colon,1.61 µM
same,TGI,SW-620 colon,4.19 µM
same,GI50,HCT-15 colon,10.4 µM
same,TGI,HCT-15 colon,25.1 µM
same,GI50,SNB-19 CNS,1.83 µM
same,TGI,SNB-19 CNS,4.77 µM
same,GI50,MCF7 breast,1.98 µM
same,TGI,MCF7 breast,6.39 µM
same,GI50,RPMI-8226 leukemia,2.08 µM
same,TGI,RPMI-8226 leukemia,7.4 µM
same,GI50,SK-MEL-5 melanoma,1.96 µM
same,TGI,SK-MEL-5 melanoma,4.41 µM
same,GI50,SR leukemia,0.679 µM
same,TGI,SR leukemia,13 µM
same,GI50,MOLT-4 leukemia,2.52 µM
same,TGI,MOLT-4 leukemia,10.2 µM
same,GI50,HOP-92 NSCLC,1.33 µM
same,TGI,HOP-92 NSCLC,3.54 µM
same,GI50,SN12C renal,1.96 µM
same,TGI,SN12C renal,4.72 µM
same,GI50,NCI-H522 lung,1.06 µM
same,TGI,NCI-H522 lung,3.19 µM
same,GI50,KM12 colon,1.69 µM
same,TGI,KM12 colon,3.31 µM
same,GI50,SF-539 CNS,1.67 µM
same,TGI,SF-539 CNS,3.26 µM
same,GI50,COLO 205 colon,1.56 µM
same,TGI,COLO 205 colon,3.79 µM
same,GI50,HOP-62 NSCLC,2.05 µM
same,TGI,HOP-62 NSCLC,4.47 µM
same,GI50,ACHN renal,10.5 µM
same,TGI,ACHN renal,22.7 µM
same,GI50,786-0 renal,1.85 µM
same,TGI,786-0 renal,3.79 µM
same,GI50,SK-MEL-28 melanoma,1.83 µM
same,TGI,SK-MEL-28 melanoma,3.9 µM
same,GI50,HCC-2998 colon,1.82 µM
same,TGI,HCC-2998 colon,3.34 µM
same,GI50,U251 CNS,1.47 µM
same,TGI,U251 CNS,3.03 µM
same,GI50,SK-OV-3 ovarian,2.52 µM
same,TGI,SK-OV-3 ovarian,8.88 µM
same,GI50,EKVX NSCLC,3.32 µM
same,TGI,EKVX NSCLC,12.2 µM
